In PubChem BioAssay (NCI):
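GI50 marks 50% less growth. TGI denotes the concentration required for complete inhibition of growth.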

What was measured:
Assay in all cases: inhibition of tumour cell growth, NCI panel, 384-well format
NCI-H460 NSCLC = system: NCI-H460 NSCLC
HCC-2998 colon = system: HCC-2998 colon
HT29 colon = system: HT29 colon
HS 578T breast = system: HS 578T breast
MCF7 breast = system: MCF7 breast
NCI/ADR-RES ovarian = system: NCI/ADR-RES ovarian
MALME-3M melanoma = system: MALME-3M melanoma
CAKI-1 renal = system: CAKI-1 renal
COLO 205 colon = system: COLO 205 colon
BT-549 breast = system: BT-549 breast
SN12C renal = system: SN12C renal
PC-3 prostate = system: PC-3 prostate
DU-145 prostate = system: DU-145 prostate
M14 melanoma = system: M14 melanoma
MOLT-4 leukemia = system: MOLT-4 leukemia
U251 glioblastoma = system: U251 glioblastoma
UACC-257 melanoma = system: UACC-257 melanoma
SNB-75 CNS = system: SNB-75 CNS
ACHN renal = system: ACHN renal
HL-60(TB) leukemia = system: HL-60(TB) leukemia
MDA-MB-468 breast = system: MDA-MB-468 breast
K-562 leukemia = system: K-562 leukemia
TK-10 renal = system: TK-10 renal
SK-OV-3 ovarian = system: SK-OV-3 ovarian
786-0 renal = system: 786-0 renal
SF-539 CNS = system: SF-539 CNS
SW-620 colon = system: SW-620 colon
NCI-H322M lung = system: NCI-H322M lung
T-47D breast = system: T-47D breast
OVCAR-3 ovarian = system: OVCAR-3 ovarian
HCT-15 colon = system: HCT-15 colon
MDA-MB-231 breast = system: MDA-MB-231 breast
LOX IMVI melanoma = system: LOX IMVI melanoma
SR leukemia = system: SR leukemia
NCI-H226 lung = system: NCI-H226 lung
OVCAR-8 ovarian = system: OVCAR-8 ovarian
MDA-MB-435 melanoma = system: MDA-MB-435 melanoma
NCI-H522 lung = system: NCI-H522 lung
CCRF-CEM leukemia = system: CCRF-CEM leukemia
HOP-92 NSCLC = system: HOP-92 NSCLC
SF-268 CNS = system: SF-268 CNS
EKVX NSCLC = system: EKVX NSCLC
RXF 393 renal = system: RXF 393 renal
SK-MEL-5 melanoma = system: SK-MEL-5 melanoma
UACC-62 melanoma = system: UACC-62 melanoma
A549 NSCLC = system: A549 NSCLC
SNB-19 CNS = system: SNB-19 CNS
HCT-116 colon = system: HCT-116 colon
RPMI-8226 leukemia = system: RPMI-8226 leukemia
IGROV1 ovarian = system: IGROV1 ovarian
KM12 colon = system: KM12 colon
UO-31 renal = system: UO-31 renal
NCI-H23 lung = system: NCI-H23 lung
OVCAR-4 ovarian = system: OVCAR-4 ovarian
A498 renal = system: A498 renal
SK-MEL-28 melanoma = system: SK-MEL-28 melanoma
HOP-62 NSCLC = system: HOP-62 NSCLC
SF-295 CNS = system: SF-295 CNS

COCC(=O)NC/C=C/c1ccc2ncnc(Nc3ccc(Oc4ccc(C)nc4)c(C)c3)c2c1
GI50 (NCI-H460 NSCLC): 4.25 µM | TGI (NCI-H460 NSCLC): 13.2 µM | GI50 (HCC-2998 colon): 17.5 µM | TGI (HCC-2998 colon): 31.4 µM | GI50 (HT29 colon): 15.1 µM | TGI (HT29 colon): 28.5 µM | GI50 (HS 578T breast): 11.9 µM | TGI (HS 578T breast): 24.2 µM | GI50 (MCF7 breast): 4.11 µM | TGI (MCF7 breast): 14.7 µM | GI50 (NCI/ADR-RES ovarian): 15 µM | TGI (NCI/ADR-RES ovarian): 29.6 µM | GI50 (MALME-3M melanoma): 14.3 µM | TGI (MALME-3M melanoma): 27.4 µM | GI50 (CAKI-1 renal): 10.9 µM | TGI (CAKI-1 renal): 23.6 µM | GI50 (COLO 205 colon): 12.3 µM | TGI (COLO 205 colon): 24.8 µM | GI50 (BT-549 breast): 13.7 µM | TGI (BT-549 breast): 26.8 µM | GI50 (SN12C renal): 11.6 µM | TGI (SN12C renal): 26.5 µM | GI50 (PC-3 prostate): 13.9 µM | TGI (PC-3 prostate): 28.3 µM | GI50 (DU-145 prostate): 12.9 µM | TGI (DU-145 prostate): 29.3 µM | GI50 (M14 melanoma): 17.1 µM | TGI (M14 melanoma): 30.9 µM | GI50 (MOLT-4 leukemia): 6.77 µM | TGI (MOLT-4 leukemia): 18.8 µM | GI50 (U251 glioblastoma): 15 µM | TGI (U251 glioblastoma): 28.4 µM | GI50 (UACC-257 melanoma): 14.9 µM | TGI (UACC-257 melanoma): 28.3 µM | GI50 (SNB-75 CNS): 15.9 µM | TGI (SNB-75 CNS): 29.6 µM | GI50 (ACHN renal): 12.1 µM | TGI (ACHN renal): 29.1 µM | GI50 (HL-60(TB) leukemia): 3.53 µM | TGI (HL-60(TB) leukemia): 10.3 µM | GI50 (MDA-MB-468 breast): 2.19 µM | TGI (MDA-MB-468 breast): 6.66 µM | GI50 (K-562 leukemia): 5.45 µM | TGI (K-562 leukemia): 18.2 µM | GI50 (TK-10 renal): 12 µM | TGI (TK-10 renal): 24.7 µM | GI50 (SK-OV-3 ovarian): 11.3 µM | TGI (SK-OV-3 ovarian): 23.5 µM | GI50 ([…]-0 renal): 16 µM | TGI (786-0 renal): 29.6 µM | GI50 (SF-539 CNS): 2.66 µM | TGI (SF-539 CNS): 6.57 µM | GI50 (SW-620 colon): 11.1 µM | TGI (SW-620 colon): 23.2 µM | GI50 (NCI-H322M lung): 10.7 µM | TGI (NCI-H322M lung): 25.8 µM | GI50 (T-47D breast): 4.62 µM | TGI (T-47D breast): 17.6 µM | GI50 (OVCAR-3 ovarian): 14.3 µM | TGI (OVCAR-3 ovarian): 27.8 µM | GI50 (HCT-15 colon): 13 µM | TGI (HCT-15 colon): 26.4 µM | GI50 (MDA-MB-231 breast): 10.7 µM | TGI (MDA-MB-231 breast): 23.3 µM | GI50 (LOX IMVI melanoma): 12 µM | TGI (LOX IMVI melanoma): 24.6 µM | GI50 (SR leukemia): 4.1 µM | TGI (SR leukemia): 8.2 µM | GI50 (NCI-H226 lung): 16.4 µM | TGI (NCI-H226 lung): 31.9 µM | GI50 (OVCAR-8 ovarian): 3.59 µM | TGI (OVCAR-8 ovarian): 13.1 µM | GI50 (MDA-MB-435 melanoma): 15.6 µM | TGI (MDA-MB-435 melanoma): 29.1 µM | GI50 (NCI-H522 lung): 1.29 µM | TGI (NCI-H522 lung): 17.3 µM | GI50 (CCRF-CEM leukemia): 2.86 µM | TGI (CCRF-CEM leukemia): 7.8 µM | GI50 (HOP-92 NSCLC): 13.4 µM | TGI (HOP-92 NSCLC): 26.4 µM | GI50 (SF-268 CNS): 16.7 µM | TGI (SF-268 CNS): 31 µM | GI50 (EKVX NSCLC): 9.72 µM | TGI (EKVX NSCLC): 22.6 µM | GI50 (RXF 393 renal): 10.7 µM | TGI (RXF 393 renal): 22.7 µM | GI50 (SK-MEL-5 melanoma): 3.38 µM | TGI (SK-MEL-5 melanoma): 13.6 µM | GI50 (UACC-62 melanoma): 14.9 µM | TGI (UACC-62 melanoma): 28.2 µM | GI50 (A549 NSCLC): 11.5 µM | TGI (A549 NSCLC): 23.9 µM | GI50 (SNB-19 CNS): 15.2 µM | TGI (SNB-19 CNS): 28.9 µM | GI50 (HCT-116 colon): 14.2 µM | TGI (HCT-116 colon): 27.5 µM | GI50 (RPMI-8226 leukemia): 4.48 µM | TGI (RPMI-8226 leukemia): 15.3 µM | GI50 (IGROV1 ovarian): 11.7 µM | TGI (IGROV1 ovarian): 24.5 µM | GI50 (KM12 colon): 15.8 µM | TGI (KM12 colon): 29.8 µM | GI50 (UO-31 renal): 12.6 µM | TGI (UO-31 renal): 25.6 µM | GI50 (NCI-H23 lung): 15.1 µM | TGI (NCI-H23 lung): 28.8 µM | GI50 (OVCAR-4 ovarian): 13.3 µM | TGI (OVCAR-4 ovarian): 26.3 µM | GI50 (A498 renal): 14.3 µM | TGI (A498 renal): 27.6 µM | GI50 (SK-MEL-28 melanoma): 17.1 µM | TGI (SK-MEL-28 melanoma): 31.1 µM | GI50 (HOP-62 NSCLC): 15.4 µM | TGI (HOP-62 NSCLC): 29.6 µM | GI50 (SF-295 CNS): 14 µM | TGI (SF-295 CNS): 27.3 µM
